From US10526325B2, “Bicyclic heterocyclic derivatives” (Merck Patent GmbH, priority 2015, dated 2020)
Where two headings read alike, the source gives them in different places.

Legend:
[1] = biological target: human PDHK2 (12-407) (Homo sapiens (Human), UniProt Q15119); assay: Isothermal titration calorimetry (ITC) binding; conditions: ITC at 30° C., pH 7.5
Experimental: Isothermal Titration Calorimetry
ITC measurements were performed with a VP-ITC micro calorimeter (Microcal, LLC/GE Healthcare Bio-Sciences Aft Uppsala, Sweden). In general titrations were performed by titrating the protein (50 μM) to the test compound (5 μM) in 12 μl injections. All binding experiments were carried out at 30° C. In general the test compounds were diluted form DMSO stock solutions into the measurement buffer with a maximum final concentration of 1% DMSO. The measurement buffer was 20 mM HEPES, 135 mM KCl, 1 mM TCEP, 2 mM MgCl2, 15 mM NaH2PO4, pH 7.5. The human PDHK2 (12-407) was produced in E. coli as his-tagged protein and purified by affinity chromatography. The tag was removed by side specific proteolysis. Before titration the protein buffer was changed to the measurement buffer containing the same DMSO concentration as the test compound dilution. ITC data analysis was performed using Origin 7 calorimetry software from the same supplier. For most measurements a binding model of one binding site was assumed. According to the applied mathematical model it is possible to calculate the binding constant (KA), the observed binding enthalpy (ΔH^obs) as well as the stoichiometry (N) of the formed complex.
Preceding analysis the raw data was corrected for the heats of dilution by extrapolating from the saturation value from the end of titration. In order to allow for direct comparison between the respective experimental series and protein preparations the protein concentration was corrected by referencing titrations to a well behaved standard inhibitor. The apparent stoichiometry values defined the fraction of binding competent protein and compensated for relative errors in protein concentration measurements. This corrected protein concentration was used to set up ITC experiment series with test compounds. Any deviations from ideal 1:1 stoichiometry observed here were attributed to errors in compound concentration. This nominal compound concentration was corrected as well to achieve 1:1 stoichiometry in the fit.

[2] = test system: PDH-E1alpha (pSer300) in HEK293T cells; assay: Cellular immunofluorescence assay, PDH-E1alpha (pSer300) in HEK293T cells; assay type: cell-based, human; conditions: 5 hours incubation, anti-PDH-E1alpha (pSer300) immunofluorescence, read-out: IC50 (cell data)
Experimental: Cellular Assay for Determination of Compound Activities
Compound activities were determined in a cellular immunofluorescence assay. Human HEK293T cells were seeded into black 384-well plates with clear bottom and grown overnight.
Next day, test compounds were added to the wells and the plates incubated for 5 hours. Following this, cells were fixed with formaldehyde, permeabilised and blocked. The primary antibody, Anti-PDH-E1alpha (pSer300), AP1064 (Merck Millipore) was added and incubated overnight in the plate wells. Next, cells were washed and the secondary antibody, Alexa Fluor 488, goat anti-rabbit ab (A-11008, Invitrogen) was added together with Hoechst 33258 (H3569, Invitrogen) and incubated for 1 hour in the plate wells. Finally, cells were washed and the plates were measured on the laser scanning cytometer acumen hci (TTpLabtech).
The raw data were normalized against a pharmacological inhibitor control and dose response curves were generated by plotting the percent effect values using the software package Genedata screener (Genedata).

[3] = biological target: PDHK2 (Homo sapiens (Human), UniProt Q15119); assay: Biochemical activity testing of PDHK2: PDC inactivation assay; conditions: human rec PDHK2, porcine heart PDC, 5 μM ATP, read-out: IC50 PDHK2 (enzyme assay)
From the text: Biochemical Activity Testing of PDHK2: PDC Inactivation Assay
The biochemical activity assay for PDHK2 is based on the inactivation of PDC through phosphorylation by PDHK2. The assay is run in two steps: the enzymatic PDHK2 reaction in which isolated PDC is phosphorylated by PDHK2 with ATP as co-substrate and the PDC activity assay in which pyruvate and NAD are converted to acetyl-CoA and NADH. The PDC activity correlates to the increase in NADH and thereby is detectable directly via the increasing fluorescence signal (Exc 340 nm, Em 450 nm). Inhibition of PDHK2 results in a lower phosphorylation status and thereby a less decrease in activity of PDC and a stronger increase in NADH fluorescence signal.
The PDC inactivation assay is performed in Greiner 384-well microtiter plates and is used for high throughput screen. 4 μl of PDHK2 (human, rec, Carna Bioscience, 10 ng/μl-137 nM final concentration) and PDC (isolated from porcine heart, Sigma-Aldrich, 20 mU/ml final concentration) are incubated in the absence or presence of the test compound (10 dilution concentrations) for 30 min at room temperature in kinase buffer (15 mM potassium phosphate buffer, pH 7.0, 60 mM KCl, 1.5 mM DTT, 2.5 mM MgCl2, 0.0125% (w/v) BSA, 0.125% Pluronic F-68). The kinase reaction is started by the addition of 4 μl ATP substrate solution (fc 5 μM in kinase buffer). After 30 min incubation at 37° C. 40 μl of PDC reaction solution (100 mM Tris/HCl, pH 7.8, 0.5 mM EDTA, 1 mM MgCl2, 50 mM NaF, 0.25 mM Coenzyme A, 5 mM pyruvate, 1 mM NAD, 5 mM DTT, 1 mM thiamine pyrophosphate) is added. The first fluorescence measurement is performed on a Perkin Elmer Envision (Exc 340 nm, Em 450 nm). The reaction is incubated for 45 min at room temperature. Afterwards a second fluorescence measurement is performed and the PDC activity is calculated by the difference between both measurements. As full value for the PDHK2 assay the inhibitor-free PDHK2 reaction is used. The pharmacological zero value used is DCA (Sigma-Aldrich) in a final concentration of 3 mM. The inhibitory values […] were determined using either the program Symyx Assay Explorer® or Condosseo® from GeneData.

Kd [1] [nM] | IC50 [3] [nM] | SMILES | IC50 ([2]; Homo sapiens, HEK-293T) [nM] | IC50 [2] [nM]
< 300 | < 300 | C[C@@](O)(C(=O)N1CCc2c(cnn2-c2ccc(F)cc2F)C1)C(F)(F)F [Compound A5, (R)-1-[1-(2,4-Difluoro-phenyl)-1,4,6,7-tetrahydro-pyrazolo[4,3-c]pyridin-5-yl]-3,3,3-trifluoro-2-hydroxy-2-methyl-propan-1-one] | 300 to 3000 | 
< 300 | 300 to 3000 | C[C@@](O)(C(=O)N1CCc2nn(-c3ccc(F)cc3F)cc2C1)C(F)(F)F [Compound A6, (R)-1-[2-(2,4-Difluoro-phenyl)-2,4,6,7-tetrahydro-pyrazolo[4,3-c]pyridin-5-yl]-3,3,3-trifluoro-2-hydroxy-2-methyl-propan-1-one] | 3000 to 50000 | 
< 300 | < 300 | C[C@@](O)(C(=O)N1CCc2c(cnn2-c2ccccc2)C1)C(F)(F)F [Compound A3, (R)-3,3,3-Trifluoro-2-hydroxy-2-methyl-1-(1-phenyl-1,4,6,7-tetrahydro-pyrazolo[4,3-c]pyridin-5-yl)-propan-1-one] | 300 to 3000 | 
< 300 | < 300 | C[C@@](O)(C(=O)N1CCc2c(cnn2-c2ccc(F)cc2)C1)C(F)(F)F [Compound A4, (R)-3,3,3-Trifluoro-1-[1-(4-fluoro-phenyl)-1,4,6,7-tetrahydro-pyrazolo[4,3-c]pyridin-5-yl]-2-hydroxy-2-methyl-propan-1-one] | 300 to 3000 | 
 | 300 to 3000 | C[C@H]1CN(C(=O)[C@@](C)(O)C(F)(F)F)Cc2cnn(-c3ccc(F)cc3)c21 [Compound A15, (R)-3,3,3-Trifluoro-1-[(S)-1-(4-fluoro-phenyl)-7-methyl-1,4,6,7-tetrahydro-pyrazolo[4,3-c]pyridin-5-yl]-2-hydroxy-2-methyl-propan-1-one] | 300 to 3000 | 

The remaining lines, values behind:

SMILES | Kd [1] [nM] | IC50 [3] [nM] | IC50 ([2]; Homo sapiens, HEK-293T) [nM] | IC50 [2] [nM]
C[C@@H]1CN(C(=O)[C@@](C)(O)C(F)(F)F)Cc2cnn(-c3ccc(F)cn3)c21 [Compound A40, (R)-3,3,3-Trifluoro-1-[(R)-1-(5-fluoro-pyridin-2-yl)-7-methyl-1,4,6,7-tetrahydro-pyrazolo[4,3-c]pyridin-5-yl]-2-hydroxy-2-methyl-propan-1-one] | < 300 | < 300 | < 300 | 
C[C@@](O)(C(=O)N1CCc2c(nnn2-c2ccccc2)C1)C(F)(F)F [Compound A46, (R)-3,3,3-Trifluoro-2-hydroxy-2-methyl-1-(1-phenyl-1,4,6,7-tetrahydro-[1,2,3]triazolo[4,5-c]pyridin-5-yl)-propan-1-one] | < 300 | 300 to 3000 | 3000 to 50000 | 
C[C@@H]1CN(C(=O)[C@@](C)(O)C(F)(F)F)Cc2cnn(-c3ccccc3)c21 [Compound A18, (R)-3,3,3-Trifluoro-2-hydroxy-2-methyl-1-((R)-7-methyl-1-phenyl-1,4,6,7-tetrahydro-pyrazolo[4,3-c]pyridin-5-yl)-propan-1-one] | < 300 | < 300 | < 300 | 
C[C@@](O)(C(=O)N1CCc2ncn(-c3ccccc3)c2C1)C(F)(F)F [Compound A43, (R)-3,3,3-Trifluoro-2-hydroxy-2-methyl-1-(3-phenyl-3,4,6,7-tetrahydro-imidazo[4,5-c]pyridin-5-yl)-propan-1-one] | < 300 | 300 to 3000 |  | 300 to 3000
CC1CN(C(=O)[C@@](C)(O)C(F)(F)F)Cc2cn(-c3ccccc3)nc21 (stereo partly drawn) [Compound A17, (R)-3,3,3-Trifluoro-2-hydroxy-2-methyl-1-(7-methyl-2-phenyl-2,4,6,7-tetra-hydro-pyrazolo[4,3-c]pyridin-5-yl)-propan-1-one] | 300 to 3000 | 300 to 3000 | 300 to 3000 | 
C[C@@](O)(C(=O)N1CCn2c(-c3ccccc3)cnc2C1)C(F)(F)F [Compound A49, (R)-3,3,3-Trifluoro-2-hydroxy-2-methyl-1-(3-phenyl-5,6-dihydro-8H-imidazo[1,2-a]pyrazin-7-yl)-propan-1-one] | < 300 | 300 to 3000 | 3000 to 50000 | 
C[C@@](O)(C(=O)N1CCn2c(cnc2-c2ccccc2)C1)C(F)(F)F [Compound A50, (R)-3,3,3-Trifluoro-2-hydroxy-2-methyl-1-(3-phenyl-5,6-dihydro-8H-imidazo-[1,5-a]pyrazin-7-yl)-propan-1-one] | < 300 | 300 to 3000 | 3000 to 50000 | 
C[C@@H]1CN(C(=O)[C@@](C)(O)C(F)(F)F)Cc2cnc(-c3ccc(F)cc3)n21 [Compound A52, (R)-3,3,3-Trifluoro-1-[(R)-3-(4-fluoro-phenyl)-5-methyl-5,6-dihydro-8H-imidazo[1,5-a]pyrazin-7-yl]-2-hydroxy-2-methyl-propan-1-one] | < 300 | < 300 | < 300 | 
C[C@H]1CN(C(=O)[C@@](C)(O)C(F)(F)F)Cc2cnn(-c3ccc(Cl)cc3)c21 [Compound A11, (R)-1-[(S)-1-(4-Chloro-phenyl)-7-methyl-1,4,6,7-tetrahydro-pyrazolo[4,3-c]pyridin-5-yl]-3,3,3-trifluoro-2-hydroxy-2-methyl-propan-1-one] | 300 to 3000 | 3000 to 50000 | 300 to 3000 | 
CC1CN(C(=O)[C@@](C)(O)C(F)(F)F)Cc2cnn(-c3ccc(Cl)cc3)c21 (stereo partly drawn) [Compound A9, (2R)-1-[1-(4-chlorophenyl)-7-methyl-6,7-dihydro-4H-pyrazolo[4,3-c]pyridin-5-yl]-3,3,3-trifluoro-2-hydroxy-2-methyl-propan-1-one] | < 300 | < 300 | < 300 | 
C[C@@H]1CN(C(=O)[C@@](C)(O)C(F)(F)F)Cc2cnn(-c3ccc(Cl)cc3)c21 [Compound A10, (R)-1-[(R)-1-(4-Chloro-phenyl)-7-methyl-1,4,6,7-tetrahydro-pyrazolo[4,3-c]pyridin-5-yl]-3,3,3-trifluoro-2-hydroxy-2-methyl-propan-1-one] | < 300 | < 300 | < 300 | 
C[C@@](O)(C(=O)N1CCc2c(ncn2-c2ccc(F)cc2)C1)C(F)(F)F [Compound A44, (R)-3,3,3-Trifluoro-1-[1-(4-fluoro-phenyl)-1,4,6,7-tetrahydro-imidazo[4,5-c]pyridin-5-yl]-2-hydroxy-2-methyl-propan-1-one] |  | 300 to 3000 | 3000 to 50000 | 
